Test: recombinant barcode read abundance after kanamycin selection (control-corrected) (log10(CPM+1)); higher = more efficient recombination; sequences stand for … in AGTGCAGAGAAAATCGGCCAGTTTTCTCTGCCTGCAGTCCGCATGCCGT…AGATTTATGCAGCGGACTGCCTTTCTCCCAAAGTGATAAACCGGACAGTATCATGGACCGGTTTTCCCGGTAATCCGTATTTGCAAGGTTGGTTTCACT; site = the 11-nt target
How it was run: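 In a pooled screen in E. coli, targets were paired with target-binding loops of the IS621 bridge RNA. Each oligo carried a promoter, a target, a barcode and the first 104 bridge RNA bases driven by J23119, and was Gibson-cloned into a vector holding the remaining 73 bp and a T7-inducible recombinase before co-electroporation with a donor plasmid. Duplicate platings went onto chloramphenicol/ampicillin LB agar as the control or onto chloramphenicol/ampicillin/kanamycin with 0.1 mM IPTG. Recombination efficiency is the averaged, control-corrected count per million of barcodes at recombinant junctions, given as log10(CPM+1).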
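Note: IS621 recombinase and bridge RNA in Escherichia coli cells.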

With “CGACAGTCTTGGGTTCTAACCTGTTGCGT (site CGGCAGTCTAC)” the “recombinant barcode read abundance (log10)” value was 0.153.
For “CGACCCTCTTGGGTTCTAACCTGTTGCCT (site AGACCCTCTAG)”, the “recombinant barcode read abundance (log10)” value was 0.0358.
For “CGACCCTCTTGGGTTCTAACCTGTTGCCT (site CGACCCTCTAG)”, the “recombinant barcode read abundance (log10)” value was 1.74.
For “CGACCCTCTTGGGTTCTAACCTGTTGCCT (site GGACCCTCTAG)”, the “recombinant barcode read abundance (log10)” value was 0.17.
With “CGACCCTCTTGGGTTCTAACCTGTTGCCT (site TGACCCTCTAG)” the “recombinant barcode read abundance (log10)” value was 0.381.
For “CGACGAGCTTGGGTTCTAACCTGTTGCGG (site CCACGAGCTCC)”, the “recombinant barcode read abundance (log10)” value was 0.352.
In the case of “CGACGAGCTTGGGTTCTAACCTGTTGCGG (site CGACGAGCTCC)”, the “recombinant barcode read abundance (log10)” value is reported as 1.22.
With “CGAGATCCTTGGGTTCTAACCTGTTGCAT (site CGAGATCCTAT)” the “recombinant barcode read abundance (log10)” value was 1.29.
For “CGAGATCCTTGGGTTCTAACCTGTTGCAT (site CGAGGTACTAT)”, the “recombinant barcode read abundance (log10)” value was 0.
In the case of “CGAGATCCTTGGGTTCTAACCTGTTGCCT (site CGACATCCTAG)”, the “recombinant barcode read abundance (log10)” value is reported as 0.214.
With “CGAGATCCTTGGGTTCTAACCTGTTGCCT (site CGAGATCCTAG)” the “recombinant barcode read abundance (log10)” value was 0.678.
In the case of “CGAGGTACTTGGGTTCTAACCTGTTGCAT (site CGAGATCCTAT)”, the “recombinant barcode read abundance (log10)” value is reported as 0.0262.
For “CGAGGTACTTGGGTTCTAACCTGTTGCAT (site CGAGGTACTAT)”, the “recombinant barcode read abundance (log10)” value was 1.87.
With “CGATACACTTGGGTTCTAACCTGTTGCCG (site CGATACACTCG)” the “recombinant barcode read abundance (log10)” value was 0.571.
With “CGATACACTTGGGTTCTAACCTGTTGCCG (site CGATCCACTCA)” the “recombinant barcode read abundance (log10)” value was 0.052.
For “CGATCACCTTGGGTTCTAACCTGTTGCCT (site CGATCACCTAG)”, the “recombinant barcode read abundance (log10)” value was 0.105.
For “CGATCACCTTGGGTTCTAACCTGTTGCCT (site TTCGGCTCTTA)”, the “recombinant barcode read abundance (log10)” value was 0.665.
With “CGATCCACTTGGGTTCTAACCTGTTGCTG (site CGATACACTCG)” the “recombinant barcode read abundance (log10)” value was 0.16.
In the case of “CGATCCACTTGGGTTCTAACCTGTTGCTG (site CGATCCACTCA)”, the “recombinant barcode read abundance (log10)” value is reported as 0.483.
For “CGATGGACTTGGGTTCTAACCTGTTGCTG (site AAGCTTGCTAG)”, the “recombinant barcode read abundance (log10)” value was 0.0171.
With “CGATGGACTTGGGTTCTAACCTGTTGCTG (site CGATGGACTCA)” the “recombinant barcode read abundance (log10)” value was 1.81.
With “CGATTTCCTTGGGTTCTAACCTGTTGCCT (site CGATTTCCTAG)” the “recombinant barcode read abundance (log10)” value was 0.0837.
For “CGATTTCCTTGGGTTCTAACCTGTTGCCT (site CGATTTCCTAT)”, the “recombinant barcode read abundance (log10)” value was 0.102.
For “CGCAATGCTTGGGTTCTAACCTGTTGCCT (site CGAAATGCTAG)”, the “recombinant barcode read abundance (log10)” value was 0.125.
In the case of “CGCAATGCTTGGGTTCTAACCTGTTGCCT (site CGCAATGCTAG)”, the “recombinant barcode read abundance (log10)” value is reported as 0.07.
In the case of “CGCAATGCTTGGGTTCTAACCTGTTGCCT (site CGGAATGCTAG)”, the “recombinant barcode read abundance (log10)” value is reported as 0.469.
With “CGCAATGCTTGGGTTCTAACCTGTTGCCT (site CGTAATGCTAG)” the “recombinant barcode read abundance (log10)” value was 0.322.
In the case of “CGCAGCACTTGGGTTCTAACCTGTTGCCT (site AGCAGCACTAG)”, the “recombinant barcode read abundance (log10)” value is reported as 0.067.
In the case of “CGCAGCACTTGGGTTCTAACCTGTTGCCT (site CGCAGCACTAG)”, the “recombinant barcode read abundance (log10)” value is reported as 0.63.
For “CGCCAGCCTTGGGTTCTAACCTGTTGCCT (site CGCCAGCCTAG)”, the “recombinant barcode read abundance (log10)” value was 0.0113.
With “CGCCAGCCTTGGGTTCTAACCTGTTGCCT (site CGCCTGCCTAG)” the “recombinant barcode read abundance (log10)” value was 0.
With “CGCCCTTCTTGGGTTCTAACCTGTTGCCT (site CGCCCTTCTAG)” the “recombinant barcode read abundance (log10)” value was 0.0296.
For “CGCCCTTCTTGGGTTCTAACCTGTTGCCT (site TAAGGGACTTA)”, the “recombinant barcode read abundance (log10)” value was 0.0823.
In the case of “CGCCGTACTTGGGTTCTAACCTGTTGCCT (site CGACGTACTAG)”, the “recombinant barcode read abundance (log10)” value is reported as 0.264.
In the case of “CGCCGTACTTGGGTTCTAACCTGTTGCCT (site CGCCGTACTAG)”, the “recombinant barcode read abundance (log10)” value is reported as 0.405.
For “CGCCGTACTTGGGTTCTAACCTGTTGCCT (site CGGCGTACTAG)”, the “recombinant barcode read abundance (log10)” value was 0.349.
For “CGCCGTACTTGGGTTCTAACCTGTTGCCT (site CGTCGTACTAG)”, the “recombinant barcode read abundance (log10)” value was 0.0659.
For “CGCCTCACTTGGGTTCTAACCTGTTGCCT (site CGCCTCACTAG)”, the “recombinant barcode read abundance (log10)” value was 0.0456.
In the case of “CGCCTCACTTGGGTTCTAACCTGTTGCCT (site CGCCTCCCTAG)”, the “recombinant barcode read abundance (log10)” value is reported as 0.152.
In the case of “CGCCTCACTTGGGTTCTAACCTGTTGCCT (site CGCCTCGCTAG)”, the “recombinant barcode read abundance (log10)” value is reported as 0.166.
With “CGCCTCACTTGGGTTCTAACCTGTTGCCT (site CGCCTCTCTAG)” the “recombinant barcode read abundance (log10)” value was 0.0333.
For “CGCGAGTCTTGGGTTCTAACCTGTTGCTG (site CGCGAGTCTCA)”, the “recombinant barcode read abundance (log10)” value was 0.254.
In the case of “CGCGAGTCTTGGGTTCTAACCTGTTGCTG (site TAATTTGCTAG)”, the “recombinant barcode read abundance (log10)” value is reported as 0.142.
With “CGCGCCACTTGGGTTCTAACCTGTTGCCT (site CGCGCCACTAG)” the “recombinant barcode read abundance (log10)” value was 0.383.
With “CGCGCCACTTGGGTTCTAACCTGTTGCCT (site TAGCAGTCTGC)” the “recombinant barcode read abundance (log10)” value was 0.188.
With “CGCGCCTCTTGGGTTCTAACCTGTTGCCG (site CGCGCCTCTCG)” the “recombinant barcode read abundance (log10)” value was 0.0377.
For “CGCGCCTCTTGGGTTCTAACCTGTTGCCG (site GGCCCCTCTCG)”, the “recombinant barcode read abundance (log10)” value was 0.362.
For “CGCGGGGCTTGGGTTCTAACCTGTTGCCT (site CGCGCGGCTAG)”, the “recombinant barcode read abundance (log10)” value was 0.392.
With “CGCGGGGCTTGGGTTCTAACCTGTTGCCT (site CGCGGGGCTAG)” the “recombinant barcode read abundance (log10)” value was 0.662.
For “CGCGGTCCTTGGGTTCTAACCTGTTGCCT (site CGCGATCCTAG)”, the “recombinant barcode read abundance (log10)” value was 0.305.
With “CGCGGTCCTTGGGTTCTAACCTGTTGCCT (site CGCGCTCCTAG)” the “recombinant barcode read abundance (log10)” value was 0.109.
For “CGCGGTCCTTGGGTTCTAACCTGTTGCCT (site CGCGGTCCTAG)”, the “recombinant barcode read abundance (log10)” value was 0.0165.
In the case of “CGCGGTCCTTGGGTTCTAACCTGTTGCCT (site CGCGTTCCTAG)”, the “recombinant barcode read abundance (log10)” value is reported as 0.084.
With “CGCTAGACTTGGGTTCTAACCTGTTGCCT (site CGCTAGACTAG)” the “recombinant barcode read abundance (log10)” value was 0.13.
In the case of “CGCTAGACTTGGGTTCTAACCTGTTGCCT (site CGCTCGACTAG)”, the “recombinant barcode read abundance (log10)” value is reported as 0.0159.
In the case of “CGCTAGACTTGGGTTCTAACCTGTTGCCT (site CGCTGGACTAG)”, the “recombinant barcode read abundance (log10)” value is reported as 0.0628.
For “CGCTAGACTTGGGTTCTAACCTGTTGCCT (site CGCTTGACTAG)”, the “recombinant barcode read abundance (log10)” value was 0.052.
For “CGCTAGTCTTGGGTTCTAACCTGTTGCCT (site CGCTAGTCTAG)”, the “recombinant barcode read abundance (log10)” value was 0.451.
For “CGCTAGTCTTGGGTTCTAACCTGTTGCCT (site CGCTCGTCTAG)”, the “recombinant barcode read abundance (log10)” value was 0.22.
For “CGCTAGTCTTGGGTTCTAACCTGTTGCCT (site CGCTGGTCTAG)”, the “recombinant barcode read abundance (log10)” value was 0.285.
For “CGCTAGTCTTGGGTTCTAACCTGTTGCCT (site CGCTTGTCTAG)”, the “recombinant barcode read abundance (log10)” value was 0.0462.
With “CGCTCATCTTGGGTTCTAACCTGTTGCCT (site CGATCATCTAG)” the “recombinant barcode read abundance (log10)” value was 0.214.
With “CGCTCATCTTGGGTTCTAACCTGTTGCCT (site CGCTCATCTAG)” the “recombinant barcode read abundance (log10)” value was 0.0416.
For “CGCTCATCTTGGGTTCTAACCTGTTGCCT (site CGGTCATCTAG)”, the “recombinant barcode read abundance (log10)” value was 0.154.
In the case of “CGCTCATCTTGGGTTCTAACCTGTTGCCT (site CGTTCATCTAG)”, the “recombinant barcode read abundance (log10)” value is reported as 0.211.
For “CGCTCGACTTGGGTTCTAACCTGTTGCCT (site CGCTAGACTAG)”, the “recombinant barcode read abundance (log10)” value was 0.596.
